Where a SMILES comes first, the peptide text is derived from it. [ ]: non-standard residue; d: D form. Thyronine(3,5,3'-I3) = N[C@@H](Cc1cc(I)c(Oc2ccc(O)c(I)c2)c(I)c1)C(=O)O
Experiments:
[1] = Solid dose oral delivery, total T3 serum concentration AUC
[2] = target: amidase (EC 3.5.1.4; from Pseudomonas aeruginosa) (Pseudomonas aeruginosa, UniProt P11436); settings: Table 1; 37° C., 24 hours
[3] = set-up: species or system Sprague-dawley rats; settings: rat, in vivo
Procedure: (§1) Compounds were tested in Sprague-dawley rats (˜250 g). […] Rats were dosed immediately following 0 hour serum collection.

[4] = rat, in vivo
[5] = Solution dose oral delivery, T4 N-capped trimer vs. T4 sodium salt, total serum T4; set-up: species or system Sprague-dawley rats; settings: rat, in vivo
Procedure: as §1

amidase (EC 3.5.1.4; from Pseudomonas aeruginosa), sequence (P11436 whole entry): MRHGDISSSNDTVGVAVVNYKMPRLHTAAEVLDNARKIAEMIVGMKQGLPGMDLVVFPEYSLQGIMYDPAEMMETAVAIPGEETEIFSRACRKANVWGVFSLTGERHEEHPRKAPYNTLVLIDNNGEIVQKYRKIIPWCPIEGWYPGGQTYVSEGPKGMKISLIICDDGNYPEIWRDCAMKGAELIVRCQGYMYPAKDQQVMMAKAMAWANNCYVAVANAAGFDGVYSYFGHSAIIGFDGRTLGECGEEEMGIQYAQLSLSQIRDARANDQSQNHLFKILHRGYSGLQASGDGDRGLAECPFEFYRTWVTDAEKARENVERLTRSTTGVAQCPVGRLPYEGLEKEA

Structure (SMILES): N[C@@H](CCC(=O)O)C(=O)N[C@@H](CCC(=O)O)C(=O)N[C@@H](CCC(=O)O)C(=O)N[C@@H](CCC(=O)O)C(=O)N[C@@H](CCC(=O)O)C(=O)N[C@@H](CCC(=O)O)C(=O)N[C@@H](CCC(=O)O)C(=O)N[C@@H](CCC(=O)O)C(=O)N[C@@H](CCC(=O)O)C(=O)N[C@@H](CCC(=O)O)C(=O)N[C@@H](CCC(=O)O)C(=O)N[C@@H](CCC(=O)O)C(=O)N[C@@H](CCC(=O)O)C(=O)N[C@@H](CCC(=O)O)C(=O)N[C@@H](CCC(=O)O)C(=O)N[C@@H](Cc1cc(I)c(Oc2ccc(O)c(I)c2)c(I)c1)C(=O)N[C@@H](CCC(=O)O)C(=O)N[C@@H](CCC(=O)O)C(=O)N[C@@H](CCC(=O)O)C(=O)N[C@@H](CCC(=O)O)C(=O)O [20-Mer] (H-EEEEEEEEEEEEEEE[Thyronine(3,5,3'-I3)]EEEE-OH)
- total AUC divided by total AUC for T3 sodium ([1]; Study No. 12, rats): (69%)

Structure (SMILES): CCCCCCCC(=O)N[C@@H](Cc1cc(I)c(Oc2ccc(OC(=O)CCCCCCC)c(I)c2)c(I)c1)C(=O)O [C8T3(C8), N-Octanoyl-L-triiodothyronine(O-octanoyl)]
- enzymatic release of T3, Amidase [2]: 0.0

Structure (SMILES): N[C@@H](CCC(=O)O)C(=O)N[C@@H](Cc1cc(I)c(Oc2ccc(O)c(I)c2)c(I)c1)C(=O)O [C-Capped Dimer]
- total AUC divided by total AUC for T3 sodium ([1]; Study No. 13, rats): (81%)

Structure (SMILES): N[C@@H](CCC(=O)O)C(=O)N[C@@H](CCC(=O)O)C(=O)N[C@@H](Cc1cc(I)c(Oc2ccc(O)c(I)c2)c(I)c1)C(=O)O [C-Capped Trimer]
- total AUC divided by total AUC for T3 sodium ([1]; Study No. 13, rats): (89%)

Structure (SMILES): N[C@@H](Cc1cc(I)c(Oc2ccc(O)c(I)c2)c(I)c1)C(=O)N[C@@H](CCC(=O)O)C(=O)O [N-Capped Dimer]
- total AUC divided by total AUC for T3 sodium ([1]; Study No. 11, rats): (104%)

Structure (SMILES): N[C@@H](Cc1cc(I)c(Oc2ccc(O)c(I)c2)c(I)c1)C(=O)N[C@@H](CCC(=O)O)C(=O)N[C@@H](CCC(=O)O)C(=O)O [T3 N-capped trimer, H-(T3)EE-OH]
- increase of Cmax as compared to T3 sodium salt [3]: 65.2%
- increase of mean AUC relative to the T3 sodium salt AUC [3]: 50.3%
- increase of Δmax relative to the Δmax of T3 sodium salt [3]: 75.9%
- increase of Cmax over the corresponding T3 sodium salt control [4]: 50.8%
- increase of mean AUC relative to the corresponding T3 sodium salt control [4]: 72.1%
- increase of Δmax over the corresponding T3 sodium salt control [4]: 85.6%
- total AUC divided by total AUC for T3 sodium ([1]; Study No. 11, rats): 123%
- total AUC divided by total AUC for T3 sodium ([1]; Study No. 11, rats, listed as N-Capped Trimer): (123%)
- total AUC divided by total AUC for T3 sodium ([1]; Study No. 17, rats): (102%)

Structure (SMILES): CCCCCCCCCCCCCCCC(=O)Oc1ccc(Oc2c(I)cc(CC(N)C(=O)O)cc2I)cc1I.O=C(O)C(F)(F)F (centres unmarked) [T3C16, Trioodothyronine Hexadeconoate—TFA]
- enzymatic release of T3, Amidase [2]: 1.2

Structure (SMILES): N[C@@H](Cc1cc(I)c(Oc2cc(I)c(O)c(I)c2)c(I)c1)C(=O)N[C@@H](CCC(=O)O)C(=O)N[C@@H](CCC(=O)O)C(=O)O [T4 N-capped trimer]
- Tmax (time to reach maximal concentration) ([5]; Sprague-Dawley, po): 10.2 h
- increase of Cmax as compared to the sodium salt [5]: 48%
- increase of mean AUC relative to the T4 sodium salt AUC [5]: 115%
- increase of Δmax (Δ at Cmax) relative to the Δmax of T4 sodium salt [5]: 68%
- Cmax +/− SD ([5]; po): 13.0 ± 0.6 ng/dL
- Cmax, Percent of T4 sodium salt ([5]; po): 148%
- Delta @ Cmax (change in total T4 serum levels from 0 hour level) ([5]; po): 6.7 ± 1.5 ng/dL
- Delta @ Cmax, Percent of T4 sodium salt ([5]; po): 168%
